The values below come from US20170360761A1, “Selective Inhibition of HDAC6 and HDAC8, and Methods of Use Thereof” (Reaction Biology Corp., priority 2016, published 2017).

Molecules are shown by their SMILES.

Common to all, as to assay type: cell-based
One test concerns K562 cells. The test is described as follows: MTS cell viability assay, K562 cells. As to conditions: Homo sapiens, 72 hours incubation. The procedure: The effects of RBC-2008 on the viability of human tumor cell were assessed in an MTS assay. K562 cells were incubated with RBC-2008 in 384 well assay plates at 37° C., 5% CO2 for 72 hours. 5 μl of CellTiter 96® AQueous One Solution Reagent (MTS assay reagent) from Promega was added to each well and incubated for 3 hours. Absorbance at 492 nm was recorded using an Envision Multilabel Reader. The IC50 curves were plotted and the IC50 values were calculated using the GraphPad Prism 4 program based on a sigmoidal dose-response equation (FIG. 5).
(§1) About 2000-5000 of U266 cells, REH cells, K562 cells, KMS-11 cells, RPMI-8226 cells and MM. 1S cells were incubated with RBC-2008 in 384 well assay plates at 37° C., 5% CO2 for 72 hours. An amount of 5 μl of CellTiter 96® AQueous One Solution Reagent (MTS assay reagent) from Promega was added to each well and incubated for 3 hours. Absorbance at 492 nm was recorded by Envision Multilabel Reader. The IC50 curves were plotted and the IC50 values were calculated using the GraphPad Prism 4 program based on sigmoidal dose-response equation. […] 1S cells respectively (FIG. 8).

In the next test the test system is KMS-11 cells. The test is described as follows: MTS cell viability assay, KMS-11 cells. As to conditions: Homo sapiens, 72 hours incubation. The procedure:
as §1

Another test concerns REH cells. The experiment in a line: MTS cell viability assay, REH cells. As to conditions: Homo sapiens, 72 hours incubation. The protocol: as §1
For a further test, the system named is RPMI-8226 cells. The test is described as follows: MTS cell viability assay, RPMI-8226 cells. As to conditions: Homo sapiens, 72 hours incubation. The protocol:
as §1

The test system of a further test is MM. 1S cells. The test is described as follows: MTS cell viability assay, MM. 1S cells. As to conditions: Homo sapiens, MM1.S, 72 hours incubation. The procedure:
as §1

For another test, the system named is U266 cells. The experiment in a line: MTS cell viability assay, U266 cells. As to conditions: Homo sapiens, U-266, 72 hours incubation. The protocol: as §1

Take `O=C(NO)c1ccc(Cn2sc3ccccc3c2=O)cc1` [RBC-2008]: the IC50 in the test with K562 cells was 13.1 µM; with KMS-11 cells, 2.5 µM; in the test with REH cells, 1.8 µM; in the test with RPMI-8226 cells, 3.8 µM; in the test with MM. 1S cells it was 2.1 µM; in the test on U266 cells it was 14.5 µM.
